From patent US20230389542A1, “USE OF [(1,5-DIPHENYL-1H-PYRAZOL-3-YL)OXY] ACETIC ACID DERIVATIVES AND THEIR SALTS AND COMPOSITIONS CONTAINING THEM, FOR REDUCING PHYTOTOXIC EFFECTS OF AGROCHEMICALS, IN PARTICULAR OF HERBICIDES, IN USEFUL PLANTS AND CROP PLANTS” (BAYER AKTIENGESELLSCHAFT, priority 2020, published 2023)

Tests used:
[1] = tested on: summer wheat (TRZAS; cv. Triso); assay: Relative action (efficacy code): reduction of damage by mesosulfuron-methyl on summer wheat; format: in vivo; parameters: key: 0: no reduction in damage (appearance corresponding to the herbicide control); 1: slight reduction in damage; 2: distinct reduction in damage; 3: significant reduction in damage; 4: complete reduction in damage (appearance corresponding to the untreated control); settings: visual, 9-13 days after application
Protocol: 2.3 Relative Action of Selected Compounds of the Invention Using the Example of Reduction of Damage by Mesosulfuron-Methyl on Summer Wheat (TRZAS) The seeds of the crop plants to be treated are laid out in sandy loam in plastic pots (diameter μ4 cm), covered with soil and grown in a greenhouse under good conditions for germination and growth. The trial plants were treated at the early leaf stage (BBCH10-BBCH12). In the course of this, the inventive compounds of the general formula (I) formulated in the form of wettable powders (WP) were sprayed onto the above-ground parts of the plants as an aqueous suspension with a water application rate corresponding to 800 l/ha with addition of wetting agent (e.g. 0.2% Genapol-LRO or 0.2% Mero) in the specified dose. This was followed by the application of the herbicide. For this purpose, mesosulfuron-methyl, formulated in the form of water-dispersible granules (WG), was sprayed onto the above-ground parts of the plants in the form of an aqueous dispersion with a water application rate corresponding to 800 l/ha with addition of wetting agent (e.g. 0.2% Genapol-LRO or 1 l/ha Biopower) in a dose of 40-60 g/ha. The dose of the herbicide was chosen here such that it causes visually apparent damage (min. 30%, max. 75%) compared to untreated crop plants at the evaluation time on a control group of crop plants without safener treatment that were included in the same trial. After application, the plants were cultivated under good growth conditions in a greenhouse. 9-13 days after application, the efficacy of the test compounds was assessed visually. For this purpose, the appearance of the plants treated with the test compound and herbicide was compared to the corresponding herbicide controls (without safener; with clearly visible damage) and the untreated controls (without damage). The damage-reducing effect of the test compounds was expressed here in graded efficacy codes according to the following scheme: • 0: no reduction in damage (appearance corresponding to the herbicide control) • 1: slight reduction in damage • 2: distinct reduction in damage • 3: significant reduction in damage • 4: complete reduction in damage (appearance corresponding to the untreated control) The trials show clear efficacy of the inventive compounds selected by way of example with regard to the reduction in damage to the summer wheat crop plant (TRZAS; cv. Triso) caused by the herbicide mesosulfuron-methyl: […]

[2] = tested on: summer barley (HORVS; cv. Montoya); assay: Relative action (efficacy code): reduction of damage by mesosulfuron-methyl on summer barley; format: in vivo; parameters: key: 0: no reduction in damage (appearance corresponding to the herbicide control); 1: slight reduction in damage; 2: distinct reduction in damage; 3: significant reduction in damage; 4: complete reduction in damage (appearance corresponding to the untreated control); settings: visual, 9-13 days after application, 2 repeats coded separately
Protocol: 2.4 Relative Action of Selected Compounds of the Invention Using the Example of Reduction of Damage by Mesosulfuron-Methyl on Summer Barley (HORVS) The seeds of the crop plants to be treated are laid out in sandy loam in plastic pots (diameter˜4 cm), covered with soil and grown in a greenhouse under good conditions for germination and growth. The trial plants were treated at the early leaf stage (BBCH10-BBCH12). In the course of this, the inventive compounds of the general formula (I) formulated in the form of wettable powders (WP) were sprayed onto the above-ground parts of the plants as an aqueous suspension with a water application rate corresponding to 800 l/ha with addition of wetting agent (e.g. 0.2% Genapol-LRO or 0.2% Mero) in the specified dose. This was followed by the application of the herbicide. For this purpose, mesosulfuron-methyl, formulated in the form of water-dispersible granules (WG), was sprayed onto the above-ground parts of the plants in the form of an aqueous dispersion with a water application rate corresponding to 800 l/ha with addition of wetting agent (e.g. 0.2% Genapol-LRO or 1 l/ha Biopower) in a dose of 40-60 g/ha. The dose of the herbicide was chosen here such that it causes visually apparent damage (min. 30%, max. 75%) compared to untreated crop plants at the evaluation time on a control group of crop plants without safener treatment that were included in the same trial. After application, the plants were cultivated under good growth conditions in a greenhouse. 9-13 days after application, the efficacy of the test compounds was assessed visually. For this purpose, the appearance of the plants treated with the test compound and herbicide was compared to the corresponding herbicide controls (without safener; with clearly visible damage) and the untreated controls (without damage). The damage-reducing effect of the test compounds was expressed here separately for 2 repeats in graded efficacy codes according to the following scheme: • 0: no reduction in damage (appearance corresponding to the herbicide control) • 1: slight reduction in damage • 2: distinct reduction in damage • 3: significant reduction in damage • 4: complete reduction in damage (appearance corresponding to the untreated control) The trials show clear efficacy of the inventive compounds selected by way of example with regard to the reduction in damage to the summer barley crop plant (HORVS; cv. Montoya) caused by the herbicide mesosulfuron-methyl: […]

[3] = safener 100 g/ha + mesosulfuron-methyl 40-60 g/ha
[4] = safener 500 g/ha + mesosulfuron-methyl 40-60 g/ha

SMILES | Efficacy of the safener (efficacy code) [1, 3] | Efficacy of the safener (efficacy code) [1, 4] | Efficacy of the safener (efficacy code) [2, 3] | Efficacy of the safener (efficacy code) [2, 4]
CCOC(=O)COc1cc(-c2ccc(Cl)cc2F)n(-c2ccc(F)cc2Cl)n1 [I.47-48] | 3 | 4 | 2 | 3
CCOC(=O)COc1cc(-c2ccc(Cl)cc2F)n(-c2ccc(Cl)cc2F)n1 [I.47-49] |  | 3 | 2 | 3
CCOC(=O)COc1cc(-c2ccc(F)cc2F)n(-c2ccc(Cl)cc2F)n1 [I.41-49] | 3 | 4 | 2 | 2
COC(=O)COc1cc(-c2ccc(F)cc2F)n(-c2ccc(Cl)cc2F)n1 [I.40-49] | 3 | 3 | 2 | 2-3
CCOC(=O)COc1cc(-c2ccc(F)cc2)n(-c2ccc(Cl)cc2Cl)n1 [I.11-32] | 2 | 2 |  | 2
CCOC(=O)COc1cc(-c2ccc(F)cc2Cl)n(-c2ccc(Cl)cc2F)n1 [I.50-49] | 2 | 3 | 2-3 | 3
O=C(O)COc1cc(-c2ccc(F)cc2F)n(-c2ccc(Cl)cc2F)n1 [I.42-49] | 3 | 4 | 2-3 | 3
